# Source: ChEMBL document CHEMBL5120749, “Human estrogen receptor α antagonists, part 2: Synthesis driven by rational design, in vitro antiproliferative, and in vivo anticancer evaluation of innovative coumarin-related antiestrogens as breast cancer suppressants” (Eur J Med Chem, 2022)
# Experiments:
# Estrogen receptor [1] = biological target: T1, Estrogen receptor (Homo sapiens, UniProt P03372)
# T1 sequence (P03372 whole entry): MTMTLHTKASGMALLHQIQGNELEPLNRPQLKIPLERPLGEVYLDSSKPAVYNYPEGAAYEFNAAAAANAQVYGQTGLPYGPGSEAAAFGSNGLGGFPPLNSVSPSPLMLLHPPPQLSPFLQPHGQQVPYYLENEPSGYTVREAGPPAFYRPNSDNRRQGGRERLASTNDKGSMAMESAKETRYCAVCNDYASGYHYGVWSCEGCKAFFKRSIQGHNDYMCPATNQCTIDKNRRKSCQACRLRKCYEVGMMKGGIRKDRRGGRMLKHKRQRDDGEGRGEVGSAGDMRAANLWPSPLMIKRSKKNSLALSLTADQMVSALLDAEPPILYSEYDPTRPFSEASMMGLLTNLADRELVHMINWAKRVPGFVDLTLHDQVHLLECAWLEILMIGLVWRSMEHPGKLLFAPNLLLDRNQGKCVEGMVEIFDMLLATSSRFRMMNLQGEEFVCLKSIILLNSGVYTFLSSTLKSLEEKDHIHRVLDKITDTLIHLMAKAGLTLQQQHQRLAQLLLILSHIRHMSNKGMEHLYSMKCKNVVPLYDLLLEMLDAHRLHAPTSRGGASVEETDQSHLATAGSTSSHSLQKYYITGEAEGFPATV
# Description: (§1) Antagonist activity at ERalpha (unknown origin)
# [2] = biological target: T2, Estrogen receptor (Homo sapiens) (UniProt P03372); details: filed as antagonist
# T2 sequence (whole entry): T1 sequence (P03372 whole entry)
# Description: as §1
# [3] = biological target: T2, Estrogen receptor (Homo sapiens); details: filed as antagonist; remark: listed apart in the source
# Description: Relative binding affinity to ERalpha (unknown origin)
# Estrogen receptor beta [4] = biological target: T3, Estrogen receptor beta (Homo sapiens, UniProt Q92731)
# T3 sequence (Q92731 whole entry): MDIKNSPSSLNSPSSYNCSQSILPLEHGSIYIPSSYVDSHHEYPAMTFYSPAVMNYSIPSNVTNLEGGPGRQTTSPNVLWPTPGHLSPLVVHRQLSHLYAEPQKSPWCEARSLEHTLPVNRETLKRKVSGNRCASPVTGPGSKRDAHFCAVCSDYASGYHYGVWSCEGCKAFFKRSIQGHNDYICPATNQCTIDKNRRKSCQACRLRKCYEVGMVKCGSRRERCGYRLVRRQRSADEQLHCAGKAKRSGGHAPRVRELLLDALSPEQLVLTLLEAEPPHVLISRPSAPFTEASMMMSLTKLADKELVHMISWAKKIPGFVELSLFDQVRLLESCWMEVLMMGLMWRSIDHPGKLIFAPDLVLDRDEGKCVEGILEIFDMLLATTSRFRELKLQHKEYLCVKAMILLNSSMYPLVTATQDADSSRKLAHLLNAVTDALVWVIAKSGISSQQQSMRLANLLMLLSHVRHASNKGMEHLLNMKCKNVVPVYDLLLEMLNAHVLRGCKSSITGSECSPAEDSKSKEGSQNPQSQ
# Description: (§2) Antagonist activity at ERbeta (unknown origin)
# Estrogen receptor beta [5] = biological target: T3, Estrogen receptor beta; details: filed as antagonist
# Description: Relative binding affinity to ERbeta (unknown origin)
# Estrogen receptor beta [6] = biological target: T3, Estrogen receptor beta; details: filed as antagonist; remark: listed apart in the source
# Description: as §2
# Ishikawa = assay: cells; details: Homo sapiens
# Description: Antiproliferative activity against human Ishikawa cells
# in vivo [7] = details: rat, po, 5 mg/kg
# MCF7 = assay: cells; details: Homo sapiens
# Description: Antiproliferative activity against human MCF7 cells
# in vivo [8] = details: rat, po, 50 mg/kg
# [9] = octanol/water
# Description: (§3) Lipophilicity, logD of the compound by shake-flask method
# MDA-MB-231 = assay: cells; details: Homo sapiens
# Description: Antiproliferative activity against human MDA-MB-231 cells
# Progesterone receptor = biological target: T4, Progesterone receptor (Homo sapiens, UniProt P06401)
# T4 sequence (P06401 whole entry): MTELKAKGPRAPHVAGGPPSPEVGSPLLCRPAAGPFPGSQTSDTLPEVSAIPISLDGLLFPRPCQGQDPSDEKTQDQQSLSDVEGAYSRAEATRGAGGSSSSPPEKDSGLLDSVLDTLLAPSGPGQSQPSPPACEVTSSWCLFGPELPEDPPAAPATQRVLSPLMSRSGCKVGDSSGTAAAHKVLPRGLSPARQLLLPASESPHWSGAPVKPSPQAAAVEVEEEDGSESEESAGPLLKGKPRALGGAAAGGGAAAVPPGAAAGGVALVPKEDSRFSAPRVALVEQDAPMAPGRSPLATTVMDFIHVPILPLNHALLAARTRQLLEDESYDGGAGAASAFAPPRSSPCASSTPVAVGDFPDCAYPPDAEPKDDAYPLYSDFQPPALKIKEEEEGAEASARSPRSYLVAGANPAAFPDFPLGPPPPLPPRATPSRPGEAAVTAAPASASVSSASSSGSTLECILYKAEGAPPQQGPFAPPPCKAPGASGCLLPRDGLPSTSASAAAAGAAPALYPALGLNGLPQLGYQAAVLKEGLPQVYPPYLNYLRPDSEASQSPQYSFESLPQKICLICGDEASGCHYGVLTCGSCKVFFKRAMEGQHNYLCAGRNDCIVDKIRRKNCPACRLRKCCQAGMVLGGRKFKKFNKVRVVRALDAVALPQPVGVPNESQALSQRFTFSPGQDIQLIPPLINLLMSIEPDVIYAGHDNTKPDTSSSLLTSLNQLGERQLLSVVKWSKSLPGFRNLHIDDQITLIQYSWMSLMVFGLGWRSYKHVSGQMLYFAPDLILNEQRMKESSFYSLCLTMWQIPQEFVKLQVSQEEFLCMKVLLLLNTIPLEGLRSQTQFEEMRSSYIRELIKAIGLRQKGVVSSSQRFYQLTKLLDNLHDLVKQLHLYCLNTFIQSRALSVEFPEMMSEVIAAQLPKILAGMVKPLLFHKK
# Description: Antagonist activity at progesterone receptor in human MCF7 cells
# Estrogen receptor [10] = biological target: T1, Estrogen receptor; remark: listed apart in the source
# Description: Antagonist activity at ERalpha in human MCF7 cells assessed as downregulation of ERalpha
# MRC5 = assay: cells; details: Homo sapiens
# Description: Antiproliferative activity against human MRC5 cells
# physchem = details: octanol/water
# Description: as §3
Structure (SMILES),IC50 (Estrogen receptor [1]) [nM],Ka [2] [nM],log(RBA) [3],IC50 (Estrogen receptor beta [4]) [nM],log(RBA) (Estrogen receptor beta [5]),Ka (Estrogen receptor beta [6]) [nM],IC50 (Ishikawa) [nM],bioavailability (in vivo [7]) [%],IC50 (MCF7) [nM],bioavailability (in vivo [8]) [%],logD [9],IC50 (MDA-MB-231) [nM],IC50 (Progesterone receptor) [nM],IC50 (Estrogen receptor [10]) [nM],logD (physchem),IC50 (MRC5) [nM]
Cc1cc(N2Nc3c(c(=O)oc4cc(O)ccc34)-c3ccc(O)cc32)ccc1OCCN1CCC=C(C(=O)O)C1,144,32.3,-0.21,45.4,0.29,25.5,–,–,–,–,–,–,–,–,–,–
O=C(c1ccc(OCCN2CCCCC2)cc1)c1c(-c2ccc(O)cc2)sc2cc(O)ccc12 [RALOXIFENE],–,–,–,–,0.08,41.2,0.94,93,0.89,96,2.37,92.3,–,–,–,–
CC(CN1CCCC2CCCNC21)OCC(=O)N1NC2c3ccc(O)cc3OCC2c2ccc(O)cc21 (configuration not stated),168,–,–,–,–,–,–,–,–,–,–,–,–,–,–,–
Nc1ccc(-c2c(C(=O)c3ccc(OCCN4CC(C(=O)O)=CCC4=O)cc3)c3ccc(O)cc3oc2=O)cc1,39,–,–,–,–,–,–,–,–,–,–,–,> 100,> 100,–,–
O=C(COCN1CCCCC1)CN1Nc2c(c(=O)oc3cc(O)ccc23)-c2ccc(O)cc21,375,84.3,-0.63,36.8,0.38,20.7,–,–,–,–,–,–,–,–,–,–
CNCCOc1ccc(N2Nc3c(c(=O)oc4cc(O)ccc34)-c3ccc(O)cc32)cc1,161,36.1,-0.26,28.8,0.49,16.2,–,–,–,–,–,–,–,–,–,–
Cc1cc(N2Nc3cc(O)ccc3-c3c2c2ccc(O)cc2oc3=O)ccc1OCCN1CCC=C(C(=O)O)C1,–,–,–,98.2,–,–,–,–,–,–,–,–,> 100,–,–,–
CC/C(=C(\c1ccc(O)cc1)c1ccc(OCCN(C)C)cc1)c1ccccc1 [AFIMOXIFENE],–,–,–,–,–,–,1.27,87,1.2,94,–,36.8,> 100,–,3.62,> 100

# Continued by falling IC50 (Estrogen receptor [1]), values first:
IC50 (Estrogen receptor [1]) [nM],Ka [2] [nM],log(RBA) [3],IC50 (Estrogen receptor beta [4]) [nM],log(RBA) (Estrogen receptor beta [5]),Ka (Estrogen receptor beta [6]) [nM],IC50 (Ishikawa) [nM],bioavailability (in vivo [7]) [%],IC50 (MCF7) [nM],bioavailability (in vivo [8]) [%],logD [9],IC50 (MDA-MB-231) [nM],IC50 (Progesterone receptor) [nM],IC50 (Estrogen receptor [10]) [nM],logD (physchem),Structure (SMILES),IC50 (MRC5) [nM]
37,0.04,2.38,72.5,0.09,40.7,0.41,88,0.44,91,–,77,> 100,> 100,1.86,Nc1ccc(-c2c(C(=O)c3ccc(OCCN4CC(C(=O)O)=CCC4=O)cc3)c3ccc(O)cc3[nH]c2=O)cc1,> 100
1.13,–,–,–,–,–,–,–,–,–,–,–,> 100,> 100,–,Cc1cc(C(=O)C2=C(c3ccc(O)cc3)COc3cc(O)ccc32)ccc1OCCN1Cc2cccnc2C1,–
1.05,–,–,–,–,–,–,–,–,–,–,–,> 100,> 100,–,Cc1cc(C(=O)C2=C(c3ccc(O)cc3)COc3cc(O)ccc32)ccc1OCCN1C=Cc2cccnc2C1,–
0.76,0.17,2.07,86.4,0.01,48.5,0.96,–,1.03,–,–,41.8,> 100,> 100,–,O=C(COCN1CCCCC1)CN1Nc2cc(O)ccc2-c2c1c1ccc(O)cc1oc2=O,> 100
0.75,0.17,2.07,5730,0.19,32.2,0.89,–,0.93,–,–,41.5,> 100,> 100,–,O=C(c1ccc(OCCN2C(=O)CCC2=O)cc1)c1c(-c2ccc(O)cc2)oc(=O)c2cc(O)ccc12,> 100
0.71,0.16,2.1,42.7,0.32,24,0.76,–,0.8,–,–,41.7,> 100,> 100,–,O=C(c1ccc(OCCN2C=Cc3ccccc3C2)cc1)c1c(-c2ccc(O)cc2)oc(=O)c2cc(O)ccc12,> 100
0.67,0.15,2.12,67.1,0.12,37.7,0.77,–,0.73,–,–,51.5,> 100,> 100,–,CC(CN1CCCC2CCCNC21)OCC(=O)N1Nc2cc(O)ccc2C2COc3cc(O)ccc3C21 (configuration not stated),> 100
0.39,0.08,2.36,79.5,0.05,44.7,0.54,91,0.45,94,–,75.7,> 100,> 100,1.78,Nc1ccc(-c2c(C(=O)c3ccc(OCCNS(=O)(=O)O)cc3)c3ccc(O)cc3oc2=O)cc1,> 100
0.33,–,–,–,–,–,–,–,–,–,–,–,> 100,> 100,–,CNCCOc1ccc(N2Nc3cc(O)ccc3-c3c2c2ccc(O)cc2oc3=O)cc1,–
0.19,0.04,2.67,102,-0.06,57.6,0.34,91,0.25,96,–,91.8,> 100,> 100,2.14,Cc1cc(C(=O)CNc2c(-c3ccc(O)cc3)c(=O)oc3cc(O)ccc23)ccc1OCCN1CCC=C(C(=O)O)C1,> 100
